Some results are limits rather than exact numbers.

For the first test, the system named is NLRP3 inflammasome. The experiment in a line: IL-1β Secretion Assay (NLRP3-dependent IL-1β secretion in PMA-differentiated THP-1 cells, nigericin activation, HTRF). Format: cell-based. Particulars: Homo sapiens, THP-1, THP-1 cells, 100 ng/mL PMA 24 h, compound 20 h, 2.5 μM Nigericin 3 h; read-out: IC50 IL-1β Inhibition. The essentials: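 IL-1β release, quantified by HTRF after nigericin activation of the NLRP3 inflammasome, was the read-out. A logistic fit of percent inhibition gave IC50.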
Background: Time-resolved FRET reads energy transfer from a long-lived donor to a nearby acceptor.
Consider `Oc1cc(C2CC2)cc(F)c1-c1nnc(N[C@@H]2CCCN(CC(F)F)C2)n2cccc12` [Compound I-510], for which the half-inhibitory concentration (IC50) (commonly the concentration at which inhibition is half-maximal) lay within 10 to 100 nM. Consider `CN1CCC[C@@H](Nc2nnc(-c3ccc(OC(F)(F)F)cc3OC(F)F)c3ccncc23)C1` [Compound I-191], for which the IC50 was 1 to 10 nM. Consider `CN1CCC[C@@H](Nc2nnc(-c3c(O)cc(C(F)(F)F)cc3C3CC3)c3ccncc23)C1` [Compound I-274, 3-Cyclopropyl-2-[4-[[(3R)-1-methyl-3-piperidyl]amino]pyrido[3,4-d]pyridazin-1-yl]-5-(trifluoromethyl)phenol], for which the IC50 was in the range of 1 to 10 nM. As to `CN1C[C@H](F)C[C@@H](Nc2nnc(-c3ccc(C(F)(F)F)cc3OC(F)F)c3c(F)ccn23)C1` [Compound I-439], the IC50 lay in the range of 1 to 10 nM. Still for that read-out and setting: to `CN1CCC[C@@H](Nc2nnc(-c3ccc(C(F)(F)F)cc3O)c3sccc23)C1` [Compound I-4] belongs 1 to 10 nM; to `C[C@H]1COCCN1CCNc1nnc(-c2ccc(C(F)(F)F)cc2O)c2ccccc12` [Compound I-148], 10 to 100 nM; to `Cc1ccc(-c2nnc(N[C@@H]3CCCN(C)C3)c3ccccc23)c(O)c1F` [Compound I-51], less than 1 nM. With `Oc1cc(C(F)(F)F)ccc1-c1nnc(N[C@@H]2CCCN(CC(F)(F)F)C2)c2cnccc12` [Compound I-283], the half-maximal inhibitory concentration (IC50) is less than 1 nM. As to `COc1ccc(-c2nnc(N[C@@H]3CCCN(C)C3)n3nccc23)c(O)c1` [Compound I-634, (R)-5-Methoxy-2-(7-((1-methylpiperidin-3-yl)amino)pyrazolo[1,5-d][1,2,4]triazin-4-yl)phenol], the IC50 fell in the range of 10 to 100 nM.

For `CN1CCC[C@@H](Nc2nnc(-c3ccc(C(F)(F)F)cc3CC(F)(F)F)c3ccncc23)C1` [Compound I-214, (R)—N-(1-Methylpiperidin-3-yl)-1-(2-(2,2,2-trifluoroethyl)-4-(trifluoromethyl)-phenyl)pyrido[3,4-d]pyridazin-4-amine], the IC50 is less than 1 nM. On to `COc1cc(O)c(-c2nnc(N[C@@H]3CCCN(C)C3)n3cccc23)c(F)c1` [Compound I-456], for which the IC50 is less than 1 nM.

Regarding `Cc1ccc(-c2nnc(N[C@@H]3CCCN(C)C3)n3cccc23)c(C(F)F)c1` [Compound I-425, 1-[2-(Difluoromethyl)-4-methyl-phenyl]-N-[(3R)-1-methyl-3-piperidyl]pyrrolo[1,2-d][1,2,4]triazin-4-amine], the IC50 lay within 10 to 100 nM. The same measure, in the same setting: for `CC(C)c1ccc(-c2nnc(N[C@@H]3CCCN(C)C3)c3cnccc23)c(C(C)C)c1` [Compound I-207] the value was 1 to 10 nM. Consider `CCN1CCC[C@@H](Nc2nnc(-c3ccc(C(F)(F)F)cc3C(F)(F)F)c3cccn23)C1` [Compound I-371], for which the IC50 is less than 1 nM. Regarding `Oc1cc(C(F)(F)F)ccc1-c1nnc(N[C@@H]2CCCNC2)c2c1CCCCC2` [Compound I-31, (R)-2-(4-(Piperidin-3-ylamino)-6,7,8,9-tetrahydro-5H-cyclohepta[d]pyridazin-1-yl)-5-(trifluoromethyl)phenol], the IC50 is less than 1 nM. Still for that read-out and setting: to `CN1CCC[C@@H](Nc2nnc(-c3ccc(OC(F)(F)F)cc3C(F)F)c3ccncc23)C1` [Compound I-319] belongs 1 to 10 nM.

In the case of `C[C@@H](O)CNc1nnc(-c2ccc(C(F)(F)F)cc2O)c2cccn12` [Compound I-588], the IC50 was 10 to 100 nM.

Regarding `CN1CCC[C@@H](Nc2nnc(-c3ccc(C(F)(F)F)cc3C3=CCOC3)c3ccncc23)C1` [Compound I-145], the IC50 is 1 to 10 nM. As for `CO[C@H]1CCC[C@@H](Nc2nnc(-c3ccc(C(F)(F)F)cc3OC(F)F)c3cccn23)C1` [Compound I-362], the IC50 lay in the range of 10 to 100 nM.

Consider `Cc1cc2c(-c3ccc(C(F)(F)F)cc3OC(F)F)nnc(N[C@@H]3CCCN(C)C3)n2c1` [Compound I-591], for which the IC50 lay in the range of 1 to 10 nM. Same read-out and setting: to `CN1CCC[C@@H](Nc2nnc(-c3ccc(C(F)(F)F)cc3S(C)(=O)=O)c3ccncc23)C1` [Compound I-192] belongs 10 to 100 nM. Regarding `CNS(=O)(=O)c1cc(C(F)(F)F)ccc1-c1nnc(N[C@@H]2CCCN(C)C2)c2cnccc12` [Compound I-169], the IC50 was 10 to 100 nM.

For `CN1C[C@H](F)C[C@@H](Nc2nnc(-c3ccc(C(F)(F)F)cc3O)c3c(F)ccn23)C1` [Compound I-596], the IC50 lay within 1 to 10 nM. For `Cc1cc(O)c(-c2nnc(N[C@@H]3CCCN(C)C3)c3ncccc23)c(F)c1` [Compound I-304], the IC50 is less than 1 nM. Same read-out and setting: for `Cc1cc(O)c(-c2nnc(N[C@@H]3CCCN(CCO)C3)c3cnccc23)c(F)c1` [Compound I-273] the value was less than 1 nM; for `[2H]C([2H])([2H])Oc1ccc(-c2nnc(N[C@@H]3CCCN(C)C3)n3cccc23)c(O)c1` [Compound I-501, (R)-5-(Methoxy-d3)-2-(4-((1-methylpiperidin-3-yl)amino)pyrrolo[1,2-d][1,2,4]triazin-1-yl)phenol], less than 1 nM. For the molecule `OCCN1CCC[C@@H](Nc2nnc(-c3ccc(C4CC4)cc3C(F)F)c3cccn23)C1` [Compound I-509], the IC50 was 1 to 10 nM. In the case of `CC#Cc1cc(C(F)(F)F)ccc1-c1nnc(N[C@@H]2CCCN(C)C2)c2cnccc12` [Compound I-228, (R)—N-(1-methylpiperidin-3-yl)-1-(2-(prop-1-yn-1-yl)-4-(trifluoromethyl)phenyl)pyrido[3,4-d]pyridazin-4-amine], the IC50 fell in the range of 1 to 10 nM. In the case of `CN1CCC[C@@H](Nc2nnc(-c3cccc(Cl)c3O)c3ccncc23)C1` [Compound I-76], the IC50 was less than 1 nM.

As to `Cc1ccc(-c2nnc(N[C@@H]3CCCN(C)C3)c3ccccc23)c(O)c1C` [Compound I-42], the IC50 is less than 1 nM. Still for that read-out and setting: to `CCN1CCC[C@@H](Nc2nnc(-c3ccc(C4CC4)cc3C(F)F)c3cccn23)C1` [Compound I-508] belongs 1 to 10 nM.

Regarding `CN1CCC[C@@H](Nc2nnc(-c3ccc(-c4ccn(C)c4)cc3O)c3ccccc23)C1` [Compound I-94], the IC50 is 1 to 10 nM. Consider `CN1CCC[C@@H](Nc2nnc(-c3ccc(C(F)(F)F)cc3F)c3ccncc23)C1` [Compound I-128], for which the IC50 was 1 to 10 nM. `COc1ccc(-c2nnc(N[C@@H]3CCCN(C)C3)c3cnccc23)c(OC(F)F)c1` [Compound I-171]: the IC50 was less than 1 nM. Turning to `Cc1cc(F)c(-c2nnc(N[C@H]3C[C@@](C)(O)C3)n3cccc23)c(OC(F)F)c1` [Compound I-465], the IC50 was in the range of 100 to 300 nM.

Turning to `CC(C)(O)CN1CCC[C@@H](Nc2nnc(-c3c(O)cc(C(F)(F)F)cc3F)c3cccn23)C1` [Compound I-417], the IC50 was 1 to 10 nM. For `CCN1CCC[C@H]1CNc1nnc(-c2ccc(C(F)(F)F)cc2O)c2ccncc12` [Compound I-113], the IC50 was less than 1 nM. With `Oc1cc(Cl)cc(F)c1-c1nnc(NC2CCCOC2)n2cccc12` (centres unmarked) [Compound I-608], the IC50 was 10 to 100 nM. The same measure, in the same setting: to `CN1CCC[C@@H](Nc2nnc(-c3ccc(OC(F)F)cc3OC(F)F)c3cccn23)C1` [Compound I-612] belongs 1 to 10 nM. As for `Oc1cc(C(F)(F)F)ccc1-c1nnc(N[C@@H]2CCCN(CC(F)F)C2)n2cccc12` [Compound I-412], the IC50 is less than 1 nM.

The same test, now with this note: THP-1 cells, 100 ng/mL PMA 24 h, compound 20 h, 2.5 μM Nigericin 3 h; read-out: IC50 IL-1β Inhibition.
Take `Cc1cc2c(-c3ccc(C4CC4)cc3OC(F)(F)F)nnc(N[C@@H]3CCCN(C)C3)n2n1` [Compound I-419, (R)-4-(4-Cyclopropyl-2-(trifluoromethoxy)phenyl)-2-methyl-N-(1-methylpiperidin-3-yl)pyrazolo[1,5-d][1,2,4]triazin-7-amine]: the IC50 was in the range of 10 to 100 nM.

(Values after patent US20240262806A1, “INHIBITORS OF NLRP3” (PTC THERAPEUTICS, INC., priority 2021, published 2024).)
